Measurements: patent US20230271770A1, “Anti-Viral Pharmaceutical Formulations Administered Via Devices for Lung Targeted Delivery” (priority 2020, published 2023)

Assay: Estimated HCQ concentration in alveolar fluid (oral tablets, inhalation)
Set-up: species or system human
Description: The HCQ molecules in the plasma can penetrate capillaries outside the alveolar membrane to reach the alveolar lining fluid (“ALF”).
A similar analysis was performed for HCQ administered by inhalation.

## CCN(CCO)CCCC(C)Nc1ccnc2cc(Cl)ccc12 (centres unmarked) [HCQ, hydroxychloroquine]
After administration of HCQ by inhalation
  estimated concentration of HCQ in alveolar fluid: up to 22 μM
Oral tablets, Day-1 (800 mg dose, after 2nd 400 mg dose)
  estimated concentration of HCQ in alveolar fluid: 0.45 µM
Oral tablets, Day-1 after the 1st 400 mg dose
  estimated concentration of HCQ in alveolar fluid: 0.23 µM
Oral tablets, Day-2
  estimated concentration of HCQ in alveolar fluid: 0.67 µM
Oral tablets, Day-5 (total dose of 2,400 mg)
  estimated concentration of HCQ in alveolar fluid: 1.3 µM
